Reference: patent US10130590B2, “Methods of treating cancer with atovaquone-related compounds” (DANA-FARBER CANCER INSTITUTE, INC., priority 2013, dated 2018)
Entries after “also recorded” stand apart in the source; their conditions may differ. Where two headings read alike, the source gives them in different places.

Legend:
HEL cells = assay: PI cell cycle analysis, HEL; type: cell-based; conditions: 25 μM, 24 hours
Method: Annexin V/PI staining was performed using Annexin V:FITC Apoptosis Detection Kit I (BD Biosciences). Staining for cell cycle analysis was performed as previously described (267). Staining for cell-surface receptors was performed in 50 μl PBS+2% FBS with 2 μl antibody to IL6R (BioLegend #352803) or 5 μl antibody to gp130 (BD Biosciences #555757) for 20 minutes on ice in the dark. Cells were washed twice, then resuspended in 300 μl of the same buffer. Samples were analyzed on a BD FACSCanto II machine. Transfection and siRNA Cells were reverse-transfected using Lipofectamine RNAiMAX (Invitrogen); the culture medium was changed 24 hours later. Control siRNA (D-001210-02) and REDD1 siRNA (M-010855-01) were from Thermo Scientific Dharmacon. Additionally, it was hypothesized atovaquone inhibits proliferation by disrupting cell cycle progression. […] In summary, atovaquone inhibits constitutive STAT3 activation and target gene expression in cancer cells, and reduces their survival and proliferation.

STAT1 = STAT1 cell-based luciferase reporter system
Method: (§1) To determine if atovaquone inhibits STAT3, it was tested in a cell-based reporter system of STAT3 transcriptional activity (Nelson E A, et al. (2008) Nifuroxazide inhibits survival of multiple myeloma cells by directly inhibiting STAT3. Blood 112(13):5095-5102). These cells lack basal STAT3 activation; upon IL-6 treatment, STAT3 becomes activated and drives transcription of a STAT3-dependent luciferase reporter gene. The STAT3-luc reporter cells were pre-treated with drug for 1 hour, then stimulated with IL-6 (10 ng/ml) for 5 hr. Activity of firefly luciferase was measured and normalized by cell viability (Cell Titer Glo). […] To determine if atovaquone inhibits STAT3 activity specifically over other transcription factors, it was tested in cell-based reporter systems for STAT1 and STAT5, two other STAT family members, and NF-κB, an unrelated transcription factor.

[1] = cited from earlier work
NF-κB = NF-κB cell-based reporter system
Method: as §1

K562 and AML2 cells = assay: Annexin V/PI and cell cycle analysis, K562 and AML2; type: cell-based; conditions: K562 20 μM, AML2 15 μM, 48 hours
Method: Annexin V/PI staining was performed using Annexin V:FITC Apoptosis Detection Kit I (BD Biosciences). Staining for cell cycle analysis was performed as previously described (267). Staining for cell-surface receptors was performed in 50 μl PBS+2% FBS with 2 μl antibody to IL6R (BioLegend #352803) or 5 μl antibody to gp130 (BD Biosciences #555757) for 20 minutes on ice in the dark. Cells were washed twice, then resuspended in 300 μl of the same buffer. Samples were analyzed on a BD FACSCanto II machine. Transfection and siRNA Cells were reverse-transfected using Lipofectamine RNAiMAX (Invitrogen); the culture medium was changed 24 hours later. Control siRNA (D-001210-02) and REDD1 siRNA (M-010855-01) were from Thermo Scientific Dharmacon.
K562 and AML2 cells treated with atovaquone (20 and 15 μM, respectively) for 48 hours. […] Therefore, it was hypothesized that atovaquone kills cancer cells through STAT3-related and STAT3-independent mechanisms. Accordingly, the hypothesis that atovaquone inhibited another common pathway in cancer pathogenesis was considered. In particular, the mTOR pathway, which is known to be involved in cancer cell growth and survival, was investigated.

[2] = clinical use; cited from earlier work

O=C1C(O)=C([C@H]2CC[C@H](c3ccc(Cl)cc3)CC2)C(=O)c2ccccc21 [atovaquone, trans-2-[4-(4-chlorophenyl)cyclohexyl]-3-hydroxy-1,4-naphthalenedione]
population of cells in G2/M (HEL cells): decreased the population of cells in G2/M | proportion of cells with lower DNA content (HEL cells): increased the proportion of cells with lower DNA content | STAT1 transcription factor activity (STAT1): modestly affected at the higher doses | plasma concentrations achieved in patients ([1]; patients taking standard doses): 40 to 80 µM | plasma concentrations achieved in patients ([1]; patients): 15000 to 30000 ng/mL | NF-κB transcription factor activity (NF-κB): modestly affected at the higher doses | mode of loss of viability (K562 and AML2 cells): apoptosis and cell cycle arrest | side effects / tolerability [2]: side effects are minimal; also recorded: extremely well-tolerated in humans
